Assay results reported in patent US12662498B2 (priority 2017, dated 2026).

What was measured:
[1] = Hygroscopicity; assay type: physicochemical; conditions: high humidity / added to water
Text: (§1) The psilocybin of the invention in the form Polymorph A or A′ has the general properties illustrated in Table 5 below: […]

[2] = Heat cycling slurry maturation of Psilocybin Pattern A in 24 solvents (visual solubility)
[3] = ICH stability study of psilocybin batches (appearance, water content, purity, assay); conditions: 2-8° C., 25° C./60% RH and 40° C./75% RH
[4] = Solubility in water; assay type: physicochemical
Text: as §1

[5] = Heat cycling slurry maturation of amorphous Psilocybin (visual solubility, form fate); assay type: physicochemical; conditions: for Obs. at 20° C. / Obs. at 45° C. / Obs. at 50° C.: 20 vol.; for Obs. at 45° C.: 45° C. for 18 hours; for Obs. at 50° C.: 50° C. for 8 hours; for XRPD Data (form fate): solid isolated after heat cycling slurry maturation
Protocol: In order to generate amorphous material a small sample of Psilocybin (0.5 g) was dissolved in water (0.5 L, 1000 vol.), polish filtered and lyophilised. Psilocybin was recovered as an off white fibrous material (lot MC1368A; 412 mg, 82%, XRPD amorphous).
To assess visually solubility of the amorphous API and to induce form modification, a series of slurry maturations were performed as follows:
Psilocybin (15 mg) was charged to tubes. Solvent was then added at ambient temperature (20° C., 0.3 ml, 20 vol.) and the suspensions agitated. Observations were made. After 1 hour of stirring, samples were heated to 45° C. for 18 hours and observations made. Samples were heated to 50° C. for 8 hours and observations were made. The samples were agitated for 72 hours at 25° C. and subject to a final heat cycle, prior to isolation.

CN(C)CCc1c[nH]c2cccc(OP(=O)(O)O)c12 [Psilocybin, 3-[2-(dimethylazaniumyl) Ethyl]-1H-indol-4-yl Hydrogen Phosphate]
Hygroscopicity [1]: Psilocybin forms Hydrate A at high | solubility in the solvents and solvent mixtures tested ([2]; 30 volumes at 50° C.): largely insoluble | solubility in water ([2]; Water, 50° C.): did solubilise | chemical stability over the first 12 months of the ICH stability study [3]: chemically stable | solubility [4]: ~15 mg/mL

CN(C)CCc1c[nH]c2cccc(OP(=O)(O)O)c12 [amorphous Psilocybin]
Obs. at 20° C. ([5]; 4:1 EtOH/water): Susp. | Obs. at 45° C. ([5]; 4:1 EtOH/water): Susp. | Obs. at 50° C. ([5]; 4:1 EtOH/water): Susp. | Obs. at 20° C. ([5]; 4:1 IPA/water): Susp. | Obs. at 45° C. ([5]; 4:1 IPA/water): Susp. | Obs. at 50° C. ([5]; 4:1 IPA/water): Susp. | Obs. at 20° C. ([5]; 4:1 THF/water): Susp. | Obs. at 45° C. ([5]; 4:1 THF/water): Susp. | Obs. at 50° C. ([5]; 4:1 THF/water): Susp. | Obs. at 20° C. ([5]; Acetonitrile): Susp. | Obs. at 45° C. ([5]; Acetonitrile): Susp. | Obs. at 50° C. ([5]; Acetonitrile): Susp. | XRPD Data (form fate) ([5]; Acetonitrile): Amorphous | Obs. at 20° C. ([5]; Anisole): Susp. | Obs. at 45° C. ([5]; Anisole): Susp. | Obs. at 50° C. ([5]; Anisole): Susp. | XRPD Data (form fate) ([5]; Anisole): Semi-crystalline | Obs. at 20° C. ([5]; Benzotrifluoride): Susp. | Obs. at 45° C. ([5]; Benzotrifluoride): Susp. | Obs. at 50° C. ([5]; Benzotrifluoride): Susp. | XRPD Data (form fate) ([5]; Benzotrifluoride): Semi-crystalline | Obs. at 20° C. ([5]; CPME): Susp. | Obs. at 45° C. ([5]; CPME): Susp. | Obs. at 50° C. ([5]; CPME): Susp. | XRPD Data (form fate) ([5]; CPME): Semi-crystalline | Obs. at 20° C. ([5]; Chlorobenzene): Susp. | Obs. at 45° C. ([5]; Chlorobenzene): Susp. | Obs. at 50° C. ([5]; Chlorobenzene): Susp. | XRPD Data (form fate) ([5]; Chlorobenzene): Semi-crystalline | Obs. at 20° C. ([5]; Chlorobutane): Susp. | Obs. at 45° C. ([5]; Chlorobutane): Susp. | Obs. at 50° C. ([5]; Chlorobutane): Susp. | XRPD Data (form fate) ([5]; Chlorobutane): Pattern B | Obs. at 20° C. ([5]; Chloroform): Susp. | Obs. at 45° C. ([5]; Chloroform): Susp. | Obs. at 50° C. ([5]; Chloroform): Susp. | Obs. at 20° C. ([5]; Cyclohexane): Susp. | Obs. at 45° C. ([5]; Cyclohexane): Susp. | Obs. at 50° C. ([5]; Cyclohexane): Susp. | XRPD Data (form fate) ([5]; Cyclohexane): Semi-crystalline | Obs. at 20° C. ([5]; EtOAc): Susp. | Obs. at 45° C. ([5]; EtOAc): Susp. | Obs. at 50° C. ([5]; EtOAc): Susp. | XRPD Data (form fate) ([5]; EtOAc): Semi-crystalline | Obs. at 20° C. ([5]; EtOH): Susp. | Obs. at 45° C. ([5]; EtOH): Susp. | Obs. at 50° C. ([5]; EtOH): Susp. | XRPD Data (form fate) ([5]; EtOH): Pattern D | Obs. at 20° C. ([5]; Heptane): Susp. | Obs. at 45° C. ([5]; Heptane): Susp. | Obs. at 50° C. ([5]; Heptane): Susp. | XRPD Data (form fate) ([5]; Heptane): Semi-crystalline | Obs. at 20° C. ([5]; IPA): Susp. | Obs. at 45° C. ([5]; IPA): Susp. | Obs. at 50° C. ([5]; IPA): Susp. | XRPD Data (form fate) ([5]; IPA): Pattern B | Obs. at 20° C. ([5]; MEK): Susp. | Obs. at 45° C. ([5]; MEK): Susp. | Obs. at 50° C. ([5]; MEK): Susp. | XRPD Data (form fate) ([5]; MEK): Semi-crystalline | Obs. at 20° C. ([5]; MIBK): Susp. | Obs. at 45° C. ([5]; MIBK): Susp. | Obs. at 50° C. ([5]; MIBK): Susp. | XRPD Data (form fate) ([5]; MIBK): Semi-crystalline | Obs. at 20° C. ([5]; MeOH): Susp. | Obs. at 45° C. ([5]; MeOH): Susp. | Obs. at 50° C. ([5]; MeOH): Susp. | XRPD Data (form fate) ([5]; MeOH): Semi-crystalline | Obs. at 20° C. ([5]; Nitromethane): Susp. | Obs. at 45° C. ([5]; Nitromethane): Susp. | Obs. at 50° C. ([5]; Nitromethane): Susp. | XRPD Data (form fate) ([5]; Nitromethane): Pattern B | Obs. at 20° C. ([5]; TBME): Susp | Obs. at 45° C. ([5]; TBME): Susp. | Obs. at 50° C. ([5]; TBME): Susp. | XRPD Data (form fate) ([5]; TBME): Semi-crystalline | Obs. at 20° C. ([5]; THF): Susp. | Obs. at 45° C. ([5]; THF): Susp. | Obs. at 50° C. ([5]; THF): Susp. | XRPD Data (form fate) ([5]; THF): Semi-crystalline | Obs. at 20° C. ([5]; Toluene): Susp. | Obs. at 45° C. ([5]; Toluene): Susp. | Obs. at 50° C. ([5]; Toluene): Susp. | Obs. at 20° C. ([5]; Water): Susp. | Obs. at 45° C. ([5]; Water): Susp. | Obs. at 50° C. ([5]; Water): Susp. | Obs. at 20° C. ([5]; iPrOAc): Susp. | Obs. at 45° C. ([5]; iPrOAc): Susp. | Obs. at 50° C. ([5]; iPrOAc): Susp. | XRPD Data (form fate) ([5]; iPrOAc): Semi-crystalline
